Laboratory results: patent US6969600B2, “Carbonyl reductase, method for producing said enzyme, DNA encoding said enzyme, and method for producing alcohol using said enzyme” (Daicel Chemical Industries, Ltd., priority 1998, dated 2005)

What was measured:
carbonyl reductase [1] = experiment: Substrate specificity: reductase activity with various ketones and aldehydes in the presence of a coenzyme; type: biochemical, Kluyveromyces aestuarii; design: concentration or dose not given beside the values; conditions: reduction reaction, ethyl 4-chloroacetoacetate with NADH taken as 100
Protocol: (§1) A decrease of absorbance at 340 nm, following a decrease of NADH, is measured during the reaction at 30 in a reaction mixture containing 50 mM potassium phosphate buffer (pH 6.5), 0.2 mM NADH, 20 mM ethyl 4-chloroacetoacetate, and the enzyme. One unit of the enzyme of the present invention is defined as the amount required to decrease […] of NADH in 1 min. A protein is quantitated by the dye-binding method using a Protein Assay Kit (BioRad).
(§2) The reductase activity of the enzyme obtained in Example 1 was measured by reacting the enzyme with various ketones and aldehydes in the presence of a coenzyme. The results are shown in Table 2 as the activity relative to that of ethyl 4-chloroacetoacetate in the presence of NADH that is taken as 100.

carbonyl reductase [2] = experiment: Substrate specificity: NAD+-dependent dehydrogenase (oxidation) activity; type: biochemical, Kluyveromyces aestuarii; design: Relative activity (%): concentration or dose not given beside the values; conditions: for Relative activity (%): oxidation reaction, coenzyme NAD+, reduction of ethyl 4-chloroacetoacetate with NADH taken as 100; for NAD+-dependent dehydrogenase activity (in words): substrate with NAD+
Protocol: The enzyme contacts the substrate, 4-halo-3-hydroxybutyrate ester, in the presence of NAD^+, and the change (per unit time) of the absorbance at 340 nm, which is accompanied with an increase or decrease of NADH, is measured.
as §2

carbonyl reductase [3] = experiment: Influence of inhibitors on the carbonyl reductase (residual reductase activity); type: biochemical, Kluyveromyces aestuarii; conditions: for Residual activity: 30, 10 min, activity without any reagent taken as 100
Protocol: as §1
The enzyme obtained in Example 1 was incubated at 30 for 10 min in the presence of various reagents, and its reductase activity to […] was measured. The results are shown in Table 3 as the residual activity to that obtained without any reagent that is taken as 100.

[4] = 4-chloroacetoacetate ester-reducing activity of the purified enzyme; type: biochemical, Kluyveromyces aestuarii; conditions: 20 mM ethyl 4-chloroacetoacetate, 0.2 mM NADH, pH 6.5; after Superdex 200
Protocol: as §1
Kluyveromyces aestuarii IFO 10597 was cultured in 20 L of YM medium containing 24 g/L glucose, 3 g/L yeast extract, 3 g/L malt extract, and 5 g/L peptone (pH 6.0). The cultured cells were harvested by centrifugation. […]
The activity of the carbonyl reductase was detected in three fractions, a passed-through fraction and two gradient-eluted fractions. […]
The concentrated enzyme solution was adjusted to 20% saturation with ammonium sulfate and was applied to a butyl-Toyopearl 650M column (1.6 cm×5 cm) equilibrated with the standard buffer containing 20% saturation ammonium sulfate. […] The peak of the activity of the carbonyl reductase was detected in two eluted fractions. […]
The active fractions obtained by gel filtration were concentrated and analyzed by polyacrylamide gel electrophoresis (PAGE). The enzyme was detected as a substantially single band (FIG. 1). […]

[5] = type: physicochemical, Kluyveromyces aestuarii
Protocol: The enzyme obtained in Example 1 was incubated at pH 8.0 for 10 min at 30, 37, 45, 50, and 55; the reductase activity of each incubation mixture to ethyl 4-chloroacetoacetate was then measured. The results are shown in FIG. 5 as the residual activity to the activity of the untreated enzyme that is taken as 100.

For `CCOC(=O)CC(=O)CCl` [ethyl 4-chloroacetoacetate], the “Relative activity (%)” value (carbonyl reductase [1]; coenzyme NADH) was 100% and the “Relative activity (%)” value (carbonyl reductase [1]; coenzyme NADPH) was 6.4%.

For `COC(=O)CC(C)=O` [methyl acetoacetate], the “Relative activity (%)” value (carbonyl reductase [1]; coenzyme NADH) was 0%.

With `CC(=O)C=O` [Methylglyoxal] the “Relative activity (%)” value (carbonyl reductase [1]; coenzyme NADH) was 0%.

In the case of `CCOC(=O)C[C@@H](O)CCl` [ethyl (R)-4-chloro-3-hydroxybutyrate], the “Relative activity (%)” value (carbonyl reductase [2]) is reported as 0% and the “NAD+-dependent dehydrogenase activity (in words)” value (carbonyl reductase [2]) is reported as “did not show any”.

With `O=S(=O)([O-])[O-].[Cu+2]` [copper sulfate] the “Inhibition of the carbonyl reductase (in words)” value (carbonyl reductase [3]) was “significantly inhibited” and the Residual activity (carbonyl reductase [3]; inhibitor 1 mM) was 19.0.

In the case of `O=Cc1cccnc1` [pyridin-3-aldehyde], the “Relative activity (%)” value (carbonyl reductase [1]; coenzyme NADH) is reported as 0%.

With `CC(=O)C(C)=O` [2,3-butandione] the “Relative activity (%)” value (carbonyl reductase [1]; coenzyme NADH) was 70.6%.

In the case of `CC(C)O` [Isopropanol], the “Relative activity (%)” value (carbonyl reductase [2]) is reported as 0% and the “NAD+-dependent dehydrogenase activity (in words)” value (carbonyl reductase [2]) is reported as “does not substantially dehydrogenate”.

For `CC(=O)c1ccccc1` [Acetophenone], the “Relative activity (%)” value (carbonyl reductase [1]; coenzyme NADH) was 0%.

In the case of `CCOC(=O)CC(C)=O` [ethyl acetoacetate], the “Relative activity (%)” value (carbonyl reductase [1]; coenzyme NADH) is reported as 0%.

In the case of `NC(=O)CI` [iodoacetamide], the “Inhibition of the carbonyl reductase (in words)” value (carbonyl reductase [3]) is reported as “weakly inhibited” and the Residual activity (carbonyl reductase [3]; inhibitor 1 mM) is reported as 84.0.

In the case of `O=C(O)c1cc[c]([Hg][Cl])cc1` [p-chloromercuribenzoic acid], the “Inhibition of the carbonyl reductase (in words)” value (carbonyl reductase [3]) is reported as “significantly inhibited” and the Residual activity (carbonyl reductase [3]; inhibitor 0.05 mM) is reported as 0.

In the case of `COC(=O)CC(=O)CCl` [methyl 4-chloroacetoacetate], the “Relative activity (%)” value (carbonyl reductase [1]; coenzyme NADH) is reported as 13.1%.

For `O=c1c(O)c(-c2ccc(O)c(O)c2)oc2cc(O)cc(O)c12` [quercetin], the “Inhibition of the carbonyl reductase (in words)” value (carbonyl reductase [3]) was “not and not inhibited” and the Residual activity (carbonyl reductase [3]; inhibitor 0.1 mM) was 94.0.

For `CCOC(=O)C[C@H](C)O` [ethyl (S)-3-hydroxybutyrate], the “Relative activity (%)” value (carbonyl reductase [2]) was 0%.

`O=S(=O)(F)Cc1ccccc1` [Phenylmethanesulfonyl fluoride] showed a Residual activity (carbonyl reductase [3]; inhibitor 1 mM) of 99.0.

In the case of `CCC(=O)C(C)=O` [2,3-pentandione], the “Relative activity (%)” value (carbonyl reductase [1]; coenzyme NADH) is reported as 8.2%.

For `CCOC(=O)C[C@H](O)CCl` [ethyl (S)-4-chloro-3-hydroxybutyrate], the “Relative activity (%)” value (carbonyl reductase [2]) was 0% and the “NAD+-dependent dehydrogenase activity (in words)” value (carbonyl reductase [2]) was “did not show any”.

For `CCC1(CC)C(=O)NC(=O)NC1=O` [barbital], the “Inhibition of the carbonyl reductase (in words)” value (carbonyl reductase [3]) was “not and not inhibited” and the Residual activity (carbonyl reductase [3]; inhibitor 1 mM) was 101.

With `CCC=O` [Propionaldehyde] the “Relative activity (%)” value (carbonyl reductase [1]; coenzyme NADH) was 2.5%.

With `CC(=O)CC(C)=O` [2,4-pentandione] the “Relative activity (%)” value (carbonyl reductase [1]; coenzyme NADH) was 0%.

In the case of `CCOC(=O)C[C@@H](C)O` [ethyl (R)-3-hydroxybutyrate], the “Relative activity (%)” value (carbonyl reductase [2]) is reported as 1.9%.

B1: carbonyl reductase: NADH-dependent carbonyl reductase purified from Kluyveromyces aestuarii IFO 10597; amino acid sequence SEQ ID NO: 2 (protein, listed as Kluyveromyces aestuarii)
chain: MTFQHFLRGGLEDKTVPQEPPKEQYPDGVNYLSLFSQKGKLTVITGGAGAIGGALCEGFASCGSDVVILDYKYSPELSSVLESRYGVRSKSYQVDITSSEDVKLVVAKILEDFPDRDINTFVANAGIAWTNGSILNENATPDVWKRVMDVNVQGTYHCAKYVAEVFKQQGHGNLILTASMSSYISNVPNYQTCYNASKAAVRHMAKGFAVEFAHLTNPAGKIRCNSVSPGYTDTALSAFVPVEQRAQWWGLTPMGREALPQELVGAYLYLASDAASFTNGCDIQVDGGYTCV
In the case of B1, the “Specific activity of the purified enzyme” value [4] is reported as “about 28.6 U/mg”, the “Thermostability (relatively stable up to)” value [5] is reported as “up to 40” and the “Residual activity after heat incubation” value ([5]; pH 8.0, 10 min, up to 37, untreated enzyme taken as 100) is reported as ≥ 75%.
